Some results are limits rather than exact numbers.

T1 sequence (J9SQF3 1-1709 isoform J9SQF3-12): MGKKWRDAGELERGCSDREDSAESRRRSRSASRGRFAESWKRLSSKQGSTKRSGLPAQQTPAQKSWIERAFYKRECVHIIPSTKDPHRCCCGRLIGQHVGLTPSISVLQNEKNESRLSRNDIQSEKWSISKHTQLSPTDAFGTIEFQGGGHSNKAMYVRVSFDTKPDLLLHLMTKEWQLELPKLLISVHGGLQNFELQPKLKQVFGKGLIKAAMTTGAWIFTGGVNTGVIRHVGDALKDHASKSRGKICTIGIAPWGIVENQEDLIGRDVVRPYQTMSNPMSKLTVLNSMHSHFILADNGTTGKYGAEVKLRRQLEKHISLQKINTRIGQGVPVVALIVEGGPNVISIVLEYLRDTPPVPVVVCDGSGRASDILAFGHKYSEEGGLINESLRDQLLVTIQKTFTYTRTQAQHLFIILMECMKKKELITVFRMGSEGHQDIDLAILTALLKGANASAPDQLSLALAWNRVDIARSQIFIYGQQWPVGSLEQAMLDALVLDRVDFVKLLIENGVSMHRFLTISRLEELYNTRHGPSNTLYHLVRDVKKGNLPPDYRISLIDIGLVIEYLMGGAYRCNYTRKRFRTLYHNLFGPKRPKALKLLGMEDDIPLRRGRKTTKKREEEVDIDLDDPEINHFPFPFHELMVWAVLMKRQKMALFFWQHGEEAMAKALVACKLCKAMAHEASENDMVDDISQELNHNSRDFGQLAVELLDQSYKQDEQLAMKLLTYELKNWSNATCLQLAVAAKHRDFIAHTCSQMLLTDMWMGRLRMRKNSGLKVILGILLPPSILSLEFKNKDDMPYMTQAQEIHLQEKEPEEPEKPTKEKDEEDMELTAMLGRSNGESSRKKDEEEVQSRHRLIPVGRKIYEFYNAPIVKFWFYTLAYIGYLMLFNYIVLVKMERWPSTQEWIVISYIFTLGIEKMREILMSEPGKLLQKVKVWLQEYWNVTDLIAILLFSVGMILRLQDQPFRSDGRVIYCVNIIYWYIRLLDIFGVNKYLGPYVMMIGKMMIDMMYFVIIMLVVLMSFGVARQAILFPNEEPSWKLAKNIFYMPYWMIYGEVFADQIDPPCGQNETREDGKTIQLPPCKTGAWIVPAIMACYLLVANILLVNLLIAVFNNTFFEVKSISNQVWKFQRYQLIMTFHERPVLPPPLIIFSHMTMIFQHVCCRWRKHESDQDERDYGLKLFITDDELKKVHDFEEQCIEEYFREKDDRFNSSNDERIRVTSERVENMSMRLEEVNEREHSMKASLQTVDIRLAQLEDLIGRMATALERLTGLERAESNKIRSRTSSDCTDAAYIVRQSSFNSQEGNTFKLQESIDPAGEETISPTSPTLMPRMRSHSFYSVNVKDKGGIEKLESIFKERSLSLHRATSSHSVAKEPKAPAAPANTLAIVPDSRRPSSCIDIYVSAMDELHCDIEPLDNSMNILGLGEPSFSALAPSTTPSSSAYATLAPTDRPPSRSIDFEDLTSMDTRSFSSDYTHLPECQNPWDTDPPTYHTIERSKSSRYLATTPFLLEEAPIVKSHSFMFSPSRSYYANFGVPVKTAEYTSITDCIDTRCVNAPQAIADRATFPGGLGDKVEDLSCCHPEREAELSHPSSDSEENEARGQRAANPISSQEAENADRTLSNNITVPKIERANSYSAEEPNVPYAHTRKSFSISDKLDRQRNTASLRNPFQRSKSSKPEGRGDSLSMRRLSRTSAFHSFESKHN

The test has as its target T1, mouse TRPM3α2 (mTRPM3) ion channel (Mus musculus, UniProt J9SQF3).
T1 construct: expressed in transfected cells; host or cells: flip-in HEK293
Nature of the test: TRPM3 ion channel driven Ca2+ uptake, Fluo-4 AM assay in overexpressing flip-in HEK293 cells. To be noted: inhibition of Ca2+ influx stimulated with Pregnenolone sulfate (PS) 50 μM. It counts as cell-based. As for the experimental part: Monitoring the TRPM3 Ion Channel Driven Ca^2+ Uptake.
In order to monitor the inhibition of the mouse TRPM3α2 (mTRPM3) ion channel by the compounds of the invention, a cellular system making use of an mTRPM3alpha2 or hTRPM3 overexpressing cell line (flip-in HEK293) was used. The TRPM3 channel was stimulated/opened with Pregnenolone sulfate (PS) (50 μM) which results in Ca^2+ influx.
For mTRPM3, the intracellular Ca^2+ was measured with a Calcium responsive dye, Fluor-4 AM ester (Invitrogen). Cells were cultured until a confluence of 80-90%, washed with Versene (Invitrogen) and detached from the surface by a short incubation with 0.05% Trypsin (Invitrogen). The trypsination process was stopped by the addition of complete cell culture medium (DMEM, glutamax,10% FCS, NEAA, Pen-Strep). Cells were collected and resuspended in Krebs buffer without Calcium at RT.
Prior the cell seeding (+2000 cells/well into a black, 384 well plate (Greiner)) the diluted compound was added in the assay plate, together with the PS dissolved in Krebs buffer containing Calcium. […] Directly after cell addition the plates were read on an Envision fluorescence reader (Perkin Elmer) by an Excitation of 485 nm and emission at 535 nm.
Channel inhibition was calculated compared to a non-PS stimulated control versus a condition stimulated with PS (50 μM) with vehicle. The ability of the compounds of the invention to inhibit this activity was determined as: Percentage inhibition=[1-((RFU determined for sample with test compound present - RFU determined for sample with positive control inhibitor) divided by (RFU determined in the presence of vehicle - RFU determined for sample with positive control inhibitor))]*100.
The activities of the Example compounds tested are depicted in the table below. The activity ranges A, B and C refer to IC50 values in the Fluo-4 AM assay as follows: “A”: IC50<1 μM; “B”: 1 μM<IC50<20 μM and “C”: IC50>20 μM
In general, IC50 refers to the point on the concentration scale where inhibition reaches its midpoint. A lower IC50 goes with greater potency in that assay. Compound `Cc1oc2ccc(OCc3cccnc3C(F)(F)F)cc2c1C1(NC(C)C(N)=O)CC1` (centres unmarked) [Cpd 015, 2-{[1-(2-methyl-5-{[2-(trifluoromethyl)pyridin-3-yl]methoxy}-1-benzofuran-3-yl)cyclopropyl]amino}propanamide] registered an IC50 of 1000 to 20000 nM. `Cc1oc2ccc(OCc3cccnc3C(F)(F)F)cc2c1C1(NC(=O)CO)CC1` [Cpd 003, 2-hydroxy-N-[1-(2-methyl-5-{[2-(trifluoromethyl)pyridin-3-yl]methoxy}-1-benzofuran-3-yl)cyclopropyl]acetamide]: the half-maximal inhibitory concentration (IC50) is < 1000 nM. Take `Cc1oc2ccc(OCc3cccnc3C(F)(F)F)cc2c1C1(NS(=O)(=O)CC2CC2)CC1` [Cpd 013, 1-cyclopropyl-N-[1-(2-methyl-5-{[2-(trifluoromethyl)pyridin-3-yl]methoxy}-1-benzofuran-3-yl)cyclopropyl]methanesulfonamide]: the IC50 was < 1000 nM.

`Cc1oc2ccc(OCC3CC3)cc2c1C1(N)CC1` [Cpd 025, 1-[5-(cyclopropylmethoxy)-2-methyl-1-benzofuran-3-yl]cyclopropan-i-amine]: the half-inhibitory concentration (IC50) was > 20000 nM. The value for `Cc1noc(-c2c(C)oc3ccc(OCc4c(F)cccc4Cl)cc23)n1` [Cpd 028, 5-{5-[(2-chloro-6-fluorophenyl)methoxy]-2-methyl-1-benzofuran-3-yl}-3-methyl-1,2,4-oxadiazole] was > 20000 nM; that for `Cc1ncsc1COc1ccc2oc(C)c(C3(NC(=O)CO)CC3)c2c1` [Cpd 017, 2-hydroxy-N-(1-{2-methyl-5-[(4-methyl-1,3-thiazol-5-yl)methoxy]-1-benzofuran-3-yl}cyclopropyl)acetamide] was 1000 to 20000 nM; that for `Cc1oc2ccc(OCc3cccnc3C(F)(F)F)cc2c1C1(NCC(N)=O)CC1` [Cpd 012, 2-{[1-(2-methyl-5-{[2-(trifluoromethyl)pyridin-3-yl]methoxy}-1-benzofuran-3-yl)cyclopropyl]amino}acetamide] was < 1000 nM. `Cc1ncsc1COc1ccc2oc(C)c(C3(C(=O)NCCO)CC3)c2c1` [Cpd 020, N-(2-hydroxyethyl)-1-{2-methyl-5-[(4-methyl-1,3-thiazol-5-yl)methoxy]-1-benzofuran-3-yl}cyclopropane-1-carboxamide] had an IC50 of 1000 to 20000 nM. Under `Cc1ncsc1COc1ccc2oc(C)c(-c3ncc(CO)[nH]3)c2c1` [Cpd 007, (2-{2-methyl-5-[(4-methyl-1,3-thiazol-5-yl)methoxy]-1-benzofuran-3-yl}-1H-imidazol-4-yl)methanol] stands < 1000 nM; under `Cc1oc2ccc(OCc3ccccn3)cc2c1C1(N)CC1` [Cpd 024, 1-{2-methyl-5-[(pyridin-2-yl)methoxy]-1-benzofuran-3-yl}cyclopropan-i-amine], 1000 to 20000 nM. Under `Cc1oc2ccc(OCc3ccccc3)cc2c1-c1nccc(CC(F)(F)F)n1` [Cpd 030, 2-[5-(benzyloxy)-2-methyl-1-benzofuran-3-yl]-4-(2,2,2-trifluoroethyl)pyrimidine] stands > 20000 nM; under `Cc1oc2ccc(OCc3cccnc3C(F)(F)F)cc2c1C1(NS(=O)(=O)C2CC2)CC1` [Cpd 005, N-[1-(2-methyl-5-{[2-(trifluoromethyl)pyridin-3-yl]methoxy}-1-benzofuran-3-yl)cyclopropyl]cyclopropanesulfonamide], < 1000 nM. The value for `Cc1oc2ccc(OCc3ccccc3)cc2c1C1(C#N)CC1` [Cpd 019, 1-[5-(benzyloxy)-2-methyl-1-benzofuran-3-yl]cyclopropane-1-carbonitrile] was 1000 to 20000 nM; that for `COCC(=O)NC1(c2c(C)oc3ccc(OCc4cccnc4C(F)(F)F)cc23)CC1` [Cpd 010, 2-methoxy-N-[1-(2-methyl-5-{[2-(trifluoromethyl)pyridin-3-yl]methoxy}-1-benzofuran-3-yl)cyclopropyl]acetamide] was < 1000 nM; that for `COCCC(=O)NC1(c2c(C)oc3ccc(OCc4cccnc4C(F)(F)F)cc23)CC1` [Cpd 008, 3-methoxy-N-[1-(2-methyl-5-{[2-(trifluoromethyl)pyridin-3-yl]methoxy}-1-benzofuran-3-yl)cyclopropyl]propanamide] was < 1000 nM. Regarding `Cc1ncsc1COc1ccc2oc(C)c(C3(C#N)CC3)c2c1` [Cpd 011, 1-{2-methyl-5-[(4-methyl-1,3-thiazol-5-yl)methoxy]-1-benzofuran-3-yl}cyclopropane-i-carbonitrile], the IC50 is < 1000 nM. The value for `Cc1ncsc1COc1ccc2oc(C)c(C3(C(N)=O)CC3)c2c1` [Cpd 022, 1-{2-methyl-5-[(4-methyl-1,3-thiazol-5-yl)methoxy]-1-benzofuran-3-yl}cyclopropane-1-carboxamide] was 1000 to 20000 nM; that for `Cc1oc2ccc(OCc3cccnc3C(F)(F)F)cc2c1C1(CO)CC1` [Cpd 001, [1-(2-methyl-5-{[2-(trifluoromethyl)pyridin-3-yl]methoxy}-1-benzofuran-3-yl)cyclopropyl]methanol] was < 1000 nM; that for `Cc1ncsc1COc1ccc2oc(C)c(C3(CO)CC3)c2c1` [Cpd 004, (1-{2-methyl-5-[(4-methyl-1,3-thiazol-5-yl)methoxy]-1-benzofuran-3-yl}cyclopropyl)methanol] was < 1000 nM. As for `Cc1oc2ccc(OCc3ccccc3)cc2c1-c1nccc(CO)n1` [Cpd 032, {2-[5-(benzyloxy)-2-methyl-1-benzofuran-3-yl]pyrimidin-4-yl}methanol], the IC50 was > 20000 nM. Regarding `Cc1oc2ccc(OCc3cccnc3O)cc2c1C1=NC(CO)(CO)CO1` [Cpd 018, 3-[({3-[4,4-bis(hydroxymethyl)-4,5-dihydro-1,3-oxazol-2-yl]-2-methyl-1-benzofuran-5-yl}oxy)methyl]pyridin-2-ol], the IC50 was in the range of 1000 to 20000 nM. Under `Cc1oc2ccc(OCc3ccccc3)cc2c1C1(CO)CC1` [Cpd 021, {1-[5-(benzyloxy)-2-methyl-1-benzofuran-3-yl]cyclopropyl}methanol] stands 1000 to 20000 nM; under `Cc1ncsc1COc1ccc2oc(C)c(C3(N)CC3)c2c1` [Cpd 027, 1-{2-methyl-5-[(4-methyl-1,3-thiazol-5-yl)methoxy]-1-benzofuran-3-yl}cyclopropan-i-amine], > 20000 nM; under `Cc1oc2ccc(OCc3ccccc3)cc2c1-c1cncc(CC(F)(F)F)n1` [Cpd 029, 2-[5-(benzyloxy)-2-methyl-1-benzofuran-3-yl]-6-(2,2,2-trifluoroethyl)pyrazine], > 20000 nM. The value for `Cc1oc2ccc(OCc3cccnc3C(F)(F)F)cc2c1C1(CN)CC1` [Cpd 016, 1-[1-(2-methyl-5-{[2-(trifluoromethyl)pyridin-3-yl]methoxy}-1-benzofuran-3-yl)cyclopropyl]methanamine] was 1000 to 20000 nM; that for `Cc1ncc(COc2ccc3oc(C)c(C4(N)CC4)c3c2)s1` [Cpd 026, 1-{2-methyl-5-[(2-methyl-1,3-thiazol-5-yl)methoxy]-1-benzofuran-3-yl}cyclopropan-i-amine] was > 20000 nM; that for `Cc1ncsc1COc1ccc2oc(C)c(-c3ncc(CO)o3)c2c1` [Cpd 002, (2-{2-methyl-5-[(4-methyl-1,3-thiazol-5-yl)methoxy]-1-benzofuran-3-yl}-1,3-oxazol-5-yl)methanol] was < 1000 nM. The value for `Cc1oc2ccc(OCc3c(F)cccc3Cl)cc2c1-c1nn[nH]n1` [Cpd 023, 5-{5-[(2-chloro-6-fluorophenyl)methoxy]-2-methyl-1-benzofuran-3-yl}-2H-1,2,3,4-tetrazole] was 1000 to 20000 nM; that for `Cc1oc2ccc(OCc3ccccc3)cc2c1-c1cncc(CO)n1` [Cpd 031, {6-[5-(benzyloxy)-2-methyl-1-benzofuran-3-yl]pyrazin-2-yl}methanol] was > 20000 nM.

Take `Cc1oc2ccc(OCc3cccnc3C(F)(F)F)cc2c1C1(NC(=O)C(C)(C)O)CC1` [Cpd 009, 2-hydroxy-2-methyl-N-[1-(2-methyl-5-{[2-(trifluoromethyl)pyridin-3-yl]methoxy}-1-benzofuran-3-yl)cyclopropyl]propanamide]: the 50% inhibitory concentration (IC50) is < 1000 nM. On to `Cc1oc2ccc(OCc3cccnc3C(F)(F)F)cc2c1C1(NS(C)(=O)=O)CC1` [Cpd 006, N-[1-(2-methyl-5-{[2-(trifluoromethyl)pyridin-3-yl]methoxy}-1-benzofuran-3-yl)cyclopropyl]methanesulfonamide], for which the IC50 is < 1000 nM. `Cc1oc2ccc(OCc3cccnc3C(F)(F)F)cc2c1C1(N)CC1` [Cpd 014, 1-(2-methyl-5-{[2-(trifluoromethyl)pyridin-3-yl]methoxy}-1-benzofuran-3-yl)cyclopropan-1-amine]: the IC50 lay within 1000 to 20000 nM.

For the origin of these results see patent publication US20250346583A1, “NEW DERIVATIVES FOR TREATING TRPM3 MEDIATED DISORDERS” (Katholieke Universiteit Leuven, priority 2022, published 2025).
